Source: article PMC11118514, “Eminent Antimicrobial Peptide Resistance in Zymomonas mobilis: A Novel Advantage of Intrinsically Uncoupled Energetics” (Antibiotics, 2024)
≈ marks a conversion by molar mass, not a printed value. Where a SMILES comes first, the peptide text is derived from it. Where no end group is shown, it is not given here.

Legend:
[1] = tested on: S. aureus; assay: Normalized inhibitory concentration (peptide molecules per cell); type: cell-based; conditions: added AMP normalized to inoculum size, calculated with E. coli cell size parameters
Text: (§1) We noted, however, that there was a substantial difference between the specific cultivation conditions of Z. mobilis and the rest of the tested bacteria: Z. mobilis required a higher concentration of inoculum. A higher amount of biomass introduced at the start of cultivation might mitigate the antimicrobial effect of AMPs, since this decreases the number of peptide molecules available to penetrate the membrane of each individual cell. Indeed, it was shown that at least […] bound peptide molecules per bacterial cell are needed to kill it. […] For these experiments, we chose one Gram-positive and one Gram-negative model strain (S.aureus and E.coli, respectively) and two AMPs, RP556 and R10. […]
(§2) The quantification of antimicrobial resistance against various AMPs was conducted by monitoring the bacterial growth in the presence of peptides at serial dilutions. This assay was performed in 96-well plates using the Infinite® M200 PRO Multimode Microplate Reader from Tecan in Maennedorf, Switzerland, as described in our recent report. […] Optical density measurements (λ = 550 nm) were automatically recorded at 10 min intervals. The antimicrobial resistance activity was quantified as the minimum inhibitory concentration (MIC), which represents the lowest peptide concentration capable of preventing the growth of bacterial cells.

[2] = tested on: E. Cancerogenus; conditions: cited from earlier work
Text: Table 1 Minimal inhibitory concentrations (MICs) of AMPs against selected bacteria, μg/mL. | column: From / E. Cancerogenus

[3] = tested on: P. acne; conditions: cited from earlier work
Text: Table 1 Minimal inhibitory concentrations (MICs) of AMPs against selected bacteria, μg/mL. | column: From / P. acne

[4] = tested on: K. pneumonia; conditions: cited from earlier work
Text: Table 1 Minimal inhibitory concentrations (MICs) of AMPs against selected bacteria, μg/mL. | column: From / K. pneumonia

[5] = tested on: Z. mobilis; assay: Normalized inhibitory concentration (peptide molecules per cell); type: cell-based, Zymomonas mobilis; conditions: added AMP normalized to inoculum size, calculated with E. coli cell size parameters
Text: as §1, §2

[6] = tested on: E. coli; assay: as above; type: cell-based, Escherichia coli; conditions: added AMP normalized to inoculum size, calculated with E. coli cell size parameters
Text: as §1, §2

[7] = tested on: S. aureus; conditions: cited from earlier work
Text: Table 1 Minimal inhibitory concentrations (MICs) of AMPs against selected bacteria, μg/mL. | column: From / S. aureus

[8] = tested on: P. aeroginosa; conditions: cited from earlier work
Text: Table 1 Minimal inhibitory concentrations (MICs) of AMPs against selected bacteria, μg/mL. | column: From / P. aeroginosa

[9] = tested on: E. coli; conditions: cited from earlier work
Text: Table 1 Minimal inhibitory concentrations (MICs) of AMPs against selected bacteria, μg/mL. | column: From / E. coli

[10] = tested on: E. faecium; conditions: cited from earlier work
Text: Table 1 Minimal inhibitory concentrations (MICs) of AMPs against selected bacteria, μg/mL. | column: From / E. faecium

[11] = tested on: Z. mobilis; type: cell-based, Zymomonas mobilis
Procedure: Z. mobilis strains, Zm6 (ATCC 29191), E. coli (ATCC 25404) and an S. aureus strain (DSM 20231) were subjected to screening for AMP resistance. Z. mobilis strains were routinely grown on the standard culture medium containing (per liter) 5 g of yeast extract, 1 g of KH2PO4, 1 g of (NH4) 2SO4, and 0.5 g of MgSO4·7H2O, supplemented with 40 mL of 50% glucose solution. E. coli was grown on LB medium, containing (per liter) 10 g of tryptone, 5 g of yeast extract, and 10 g of NaCl. S. aureus was grown on Mueller Hinton Broth, 21 g per 1 L, at 30 °C.
The quantification of antimicrobial resistance against various AMPs was conducted by monitoring the bacterial growth in the presence of peptides at serial dilutions. This assay was performed in 96-well plates using the Infinite® M200 PRO Multimode Microplate Reader from Tecan in Maennedorf, Switzerland, as described in our recent report. All bacterial strains were cultivated at 32 °C for 13–18 h at 200 rpm. Optical density measurements (λ = 550 nm) were automatically recorded at 10 min intervals. The antimicrobial resistance activity was quantified as the minimum inhibitory concentration (MIC), which represents the lowest peptide concentration capable of preventing the growth of bacterial cells.

[12] = tested on: Z. mobilis cell suspension (proton-dependent ATP synthase of the cytoplasmic membrane); assay: ATP synthesis induced by artificial transmembrane pH gradient; type: cell-based, Zymomonas mobilis; conditions: Z. mobilis starved cells; 10 μM, added 5 min before pH shift of 3.5–4.0 units; luciferin–luciferase
Procedure: (§3) Here, we assumed that any effect the AMPs exerted on the pH-induced ATP synthesis indicated a direct interaction between the peptide and the cytoplasmic membrane. After the induction of a pH gradient of 3.5–4.0 units in cell suspensions of both Z. mobilis and E. coli, we observed an abrupt increase in the intracellular ATP concentration, reaching its maximum value within a time span between 30 sec and 1 min. The magnitude of the observed ATP concentration rise approximately corresponded to previously published values. […] When added in amounts below the threshold value (Figure 4a,b), peptides had no inhibitory effect on the ATP response. […] Yet, such an effect elicits a much stronger physiological response in E. coli than in Z. mobilis.
(§4) ATP synthase activity induced by an artificial pH gradient was measured in non-growing starved cell suspensions. For the preparation of non-growing cell suspension, cells were harvested in the late exponential phase, sedimented, washed, and resuspended in 100 mM potassium phosphate buffer (pH 7.0), to a biomass concentration of 1.5–2.0 mg dry wt /mL. […] For ATP determination, 20 μL samples were quenched in ice-cold 10% TCA and assayed by the standard luciferin–luciferase method using a TECAN Infinite 200Pro microplate reader (Tecan, Männedorf, Switzerland). […]

[13] = tested on: E. coli cell suspension (proton-dependent ATP synthase of the cytoplasmic membrane); assay: as above; type: cell-based, Escherichia coli; conditions: E. coli starved cells; 10 μM, added 5 min before pH shift of 3.5–4.0 units; luciferin–luciferase
Procedure: as §3, §4

Compound	Normalized inhibitory concentration [1]	MIC [2] [µg/mL]	MIC [3] [µg/mL]	MIC [4] [µg/mL]	Normalized inhibitory concentration [5]	Normalized inhibitory concentration [6]	MIC [7] [µg/mL]	MIC [8] [µg/mL]	MIC [9] [µg/mL]	MIC [10] [µg/mL]	MIC [11] [µg/mL]	effect on pH gradient-induced ATP synthesis [12]	effect on pH gradient-induced ATP synthesis [13]
CC[C@H](C)[C@H](NC(=O)CNC(=O)[C@H](CCCCN)NC(=O)[C@H](Cc1ccc(O)cc1)NC(=O)[C@H](CS)NC(=O)[C@@H](NC(=O)[C@H](CCCCN)NC(=O)[C@H](Cc1ccccc1)NC(=O)[C@H](CS)NC(=O)[C@H](Cc1c[nH]c2ccccc12)NC(=O)[C@@H](N)CCCNC(=N)N)C(C)C)C(=O)N[C@@H](CS)C(=O)N[C@@H](Cc1ccc(O)cc1)C(=O)N[C@@H](CCCCN)C(=O)N[C@@H](CCCCN)C(=O)N[C@@H](CS)C(=O)N[C@@H](CCCCN)C(=O)O [RP556] (H-RWCFKVCYKGICYKKCK-OH; N-terminus and C-terminus assumed)	2.43 × 10^7 peptide molecules per cell	4.0 (≈ 1.85 µM)	2.0 (≈ 0.927 µM)	4.0 (≈ 1.85 µM)	1.68 × 10^10 peptide molecules per cell	2.93 × 10^7 peptide molecules per cell	1.0 (≈ 0.464 µM)	2.0 (≈ 0.927 µM)	4.0 (≈ 1.85 µM)	2.0 (≈ 0.927 µM)	–	–	–
CC(C)C[C@H](NC(=O)[C@H](CS)NC(=O)[C@H](Cc1ccccc1)NC(=O)[C@@H](N)CCCCN)C(=O)N[C@@H](CCCCN)C(=O)N[C@@H](Cc1ccccc1)C(=O)N[C@@H](CS)C(=O)N[C@@H](Cc1ccccc1)C(=O)N[C@@H](CCCCN)C(=O)NCC(=O)N[C@@H](Cc1ccccc1)C(=O)N[C@@H](CS)C(=O)N[C@@H](Cc1ccccc1)C(=O)N[C@@H](CCCCN)C(=O)N[C@@H](C)C(=O)N[C@@H](CS)C(=O)NCC(=O)N[C@@H](CCCCN)C(=O)O [R11] (H-KFCLKFCFKGFCFKACGK-OH; N-terminus and C-terminus assumed)	–	63.0 (≈ 29.9 µM)	0.3 (≈ 0.142 µM)	63.0 (≈ 29.9 µM)	–	–	16.0 (≈ 7.6 µM)	63.0 (≈ 29.9 µM)	125.0 (≈ 59.4 µM)	16.0 (≈ 7.6 µM)	250.0 (≈ 119 µM)	–	–
IAKKFWKKFWKFWKIFKKIA [R12]	–	31.0	0.5	31.0	–	–	8.0	4.0	8.0	16.0	63.0	–	–
FAKALKALLKALKAL [Oligo10]	–	63.0	2.0	63.0	–	–	4.0	63.0	16.0	16.0	31.0	–	–
CC(C)[C@H](NC(=O)[C@H](Cc1ccc(O)cc1)NC(=O)[C@H](Cc1c[nH]c2ccccc12)NC(=O)[C@H](CS)NC(=O)[C@H](Cc1ccccc1)NC(=O)CN)C(=O)N[C@@H](CS)C(=O)N[C@@H](C)C(=O)N[C@@H](CCCNC(=N)N)C(=O)N[C@@H](CCCNC(=N)N)C(=O)N[C@@H](CC(N)=O)C(=O)NCC(=O)N[C@@H](C)C(=O)N[C@@H](CCCNC(=N)N)C(=O)N[C@H](C(=O)N[C@@H](CS)C(=O)N[C@@H](Cc1ccc(O)cc1)C(=O)N[C@@H](CCCNC(=N)N)C(=O)N[C@@H](CCCNC(=N)N)C(=O)N[C@@H](CS)C(=O)N[C@@H](CC(N)=O)C(=O)O)C(C)C [AA139] (H-GFCWYVCARRNGARVCYRRCN-OH; N-terminus and C-terminus assumed)	–	8.0 (≈ 3.13 µM)	63.0 (≈ 24.7 µM)	8.0 (≈ 3.13 µM)	–	–	8.0 (≈ 3.13 µM)	16.0 (≈ 6.26 µM)	4.0 (≈ 1.57 µM)	16.0 (≈ 6.26 µM)	250.0 (≈ 97.9 µM)	–	–
N#CC(C#N)=NNc1cccc(Cl)c1 [ClCCP]	–	–	–	–	–	–	–	–	–	–	–	almost complete de-energization and a dramatic drop of the ATP yield	almost complete de-energization and a dramatic drop of the ATP yield
IAKKFWPKFWKFWKIFKKIA [R13]	–	31.0	0.3	8.0	–	–	4.0	4.0	4.0	16.0	63.0	–	–
VKRWKKWWRKWKKWV [LZ1]	–	16.0	8.0	16.0	–	–	2.0	8.0	31.0	4.0	–	–	–
KKIAKKFWKKFWKFWPKFWKIFKK [R14]	–	16.0	1.0	4.0	–	–	8.0	4.0	16.0	8.0	63.0	–	–
KKIAKKFWKKFWKFWKIFKK [R10]	1.98 × 10^8 peptide molecules per cell	16.0	0.5	8.0	6.58 × 10^9 peptide molecules per cell	2.30 × 10^7 peptide molecules per cell	4.0	2.0	2.0	4.0	31.0	–	–
KIAKRIWKRIWKILRRR [PA13]	–	16.0	16.0	16.0	–	–	2.0	16.0	31.0	4.0	63.0	–	–
